According to patent US10228381B2, “Additive channels” (Emulate Inc., priority 2016, dated 2019):
“Also recorded” adds a separate entry of the source. Positions of bridges follow the written chain, without caps; N, C: chain ends. Non-standard residues stand in square brackets, D forms with d. Residues, ends and D or L forms follow the SMILES beside them. hArg = N=C(N)NCCCC[C@H](N)C(=O)O; Mpa = O=C(O)CCS

Legend:
[1] = test system: platelets in human whole blood on HUVEC endothelium; experiment: Vessel-On-Chip blood perfusion, platelet coverage by fluorescence imaging; type: cell-based; conditions: for areas of platelet coverage (platelet aggregation on the endothelium): endothelial pre-treatment TNF-α 50 ng/ml 6 hours, or sCollagen 10 μg/ml in blood; for platelet aggregate formation compared to untreated blood: hu5C8 240 μg/mL, sCD40L 10 ng/ml, 4 donors, 60 μl/minute
Method: Platelets: Platelets were labeled with human CD41-PE antibody (10 μL/ml, Invitrogen) directly added to the blood and incubated at room temperature for 5 minutes.
(§1) Adding Blood to a Vessel-On-Chip And Flow Conditions: A medical grade plastic reservoir was mounted on the chip, then 800 μl of the blood sample was pipetted into the reservoir. The chip was perfused with the blood by withdrawing it at a rate of 60 μl/minute using a syringe pump. The citrated blood was re-calcified 2 minutes after the beginning of each experiment by adding 100 μl/ml of a solution containing 100 mM calcium chloride and 75 mM magnesium chloride to the blood to permit calcium- and magnesium -dependent platelet function and coagulation.
(§2) Fluorescence Image Analysis: Chips perfused with blood samples were immediately imaged via fluorescence microscopy (Olympus IX83, 10× objective UPLFLN10X2 , Orca-Flash4.0 CMOS Camera). Each chamber was inspected along its entire length and 5 images (about 0.25 cm) were captured from the central area of the chamber. Image processing and quantification was performed with an automatic macro compiled in ImageJ and numerical values corresponding to platelet coverage or fibrin florescence were collected and statistically analyzed in Graphpad Prism V7.
Platelet Coverage: A percentage of signal coverage (or Platelet coverage) was computed from the binary image as the ratio of bright pixels to the total number of pixels in the image. Image processing and quantification was performed with an automatic macro compiled in ImageJ in order to ensure unbiased signal measurements. Numerical values corresponding to platelet coverage or fibrin fluorescence (signal intensity) were collected and statistically analyzed in Graphpad Prism V7.

[2] = test system: fibrin deposition on HUVEC endothelium; experiment: Vessel-On-Chip blood perfusion, fibrin deposition by fluorescence imaging; type: cell-based, human; conditions: for fibrin signal intensity (fibrin deposition on the endothelium): endothelial pre-treatment TNF-α 50 ng/ml 6 hours, or sCollagen 10 μg/ml in blood; for fibrin deposition on the endothelium compared to untreated blood: hu5C8 240 μg/mL, sCD40L 10 ng/ml, 4 donors, 60 μl/minute
Method: as §1
Visualizing Fibrin Deposition: When analyzing the formation of fibrin, 10 μg/ml of fluorescently labeled fibrinogen (Alexa 488, Invitrogen) was also added to the blood. While fluorescent fibrinogen was barely detected as a diffused fluorescence, fibrin deposition on inflamed cells and sparse clots was easily distinguished since fibrin formed filamentous structures produce a signal intensity that is clearly observed above a background threshold.
as §2

[3] = test system: thrombin anti-thrombin complex (TAT); experiment: Thrombin-Anti Thrombin (TAT) ELISA in chip effluent; type: cell-based, human; conditions: FIG. 22B; plasma from blood flowing out of the chip
Method: Thrombin-Anti Thrombin (TAT) Measurement via ELISA: Thrombin Anti-Thrombin (TAT) levels were analyzed in plasma from blood flowing out of the chip device by removing a sample from the outflow port. Thus TAT levels were evaluated in sample effluents collected from the outflow port of the chip using the Human TAT ELISA Kit (Siemens Healthineers) according to the user manual.

[4] = test system: blood clots on endothelium; experiment: Imaging of blood clots formed on-chip (SEM, micrographs, 3D movie); type: cell-based, human; conditions: after blood perfusion
Method: Scanning Electron Microscopy Sample Pre-treatment and Imaging: Immediately after fluorescence imaging, the chips were fixed in 2.5% glutaraldehyde in 100 mM sodium cacodylate buffer for 2 hours at room temperature. Then, the samples were washed and post fixed in 1% osmium tetroxide for 1 hour at room temperature. After the postfixation, the samples were dehydrated in series dilutions of ethanol and finally completely dried in a Critical point dryer (Tousimus Autosamsri-815). After mounting, the samples were gold sputtered using a Sputter coating system (Hummer 6.2) and imaged by SEM (Jeol 5600LV).

[5] = test system: human whole blood on HUVEC endothelium; experiment: Vessel-On-Chip thrombosis, all endpoints together (platelet coverage, fibrin deposition, TAT); type: cell-based; conditions: adding Eptifibatide; n=4 donors
[6] = Eptifibatide 2 ug/ml, endothelium inflamed with TNF-α, n=4
[7] = Eptifibatide 2 ug/ml, following treatment with sCollagen, n=4

TNF-α
areas of platelet coverage (platelet aggregation on the endothelium) [1]: increased
fibrin signal intensity (fibrin deposition on the endothelium) [2]: increased
levels of TAT in outflow samples [3]: significantly increased; also recorded: elevated levels
structure of blood clots formed on-chip [4]: compact clots composed of red blood cells and platelets, surrounded by fibrin; also recorded: high number of larger aggregates containing a platelet rich core decorated with fibrin

N=C(N)NCCCC[C@@H]1NC(=O)CCSSC[C@@H](C(N)=O)NC(=O)[C@@H]2CCCN2C(=O)[C@H](Cc2c[nH]c3ccccc23)NC(=O)[C@H](CC(=O)O)NC(=O)CNC1=O [Eptifibatide] ([Mpa][hArg]GDWPC-NH2; disulfide 1-7)
platelet aggregation [1, 6]: significantly inhibited
inhibitory effect on platelet aggregation [1, 7]: comparatively modest
platelet adhesion (image analysis of multiple experiments) ([1]; Eptifibatide 2 ug/ml, n=4): completely inhibited
fibrin clot formation [2, 6]: significantly inhibited
inhibitory effect on fibrin clot formation [2, 7]: comparatively modest
fibrin signal (image analysis of multiple experiments) ([2]; Eptifibatide 2 ug/ml, samples treated with TNF-α): significant amount of fibrin signal was still detectable
pro-thrombotic effects (platelet coverage, fibrin deposition) of TNF-α and sCollagen / thrombotic events [5]: suppressed; also recorded: inhibited

sCollagen: soluble collagen (Soluble Calf Skin, Type I), a standard platelet activator
areas of platelet coverage (platelet aggregation on the endothelium) [1]: increased
fibrin signal intensity (fibrin deposition on the endothelium) [2]: increased
levels of TAT in outflow samples [3]: minimally increased; also recorded: elevated levels
structure of blood clots formed on-chip [4]: meshwork of complex fibrin-rich clots that incorporated red blood cells and platelets; also recorded: high number of larger aggregates containing a platelet rich core decorated with fibrin

B1: sCD40L: soluble CD40 ligand; recombinant human sCD40 Ligand (protein, UniProt P29965 113-261, looked up)
CD40 ligand, soluble form: MQKGDQNPQIAAHVISEASSKTTSVLQWAEKGYYTMSNNLVTLENGKQLTVKRQGLYYIYAQVTFCSNREASSQAPFIASLCLKSPGRFERILLRAANTHSSAKPCGQQSIHLGGVFELQPGASVFVNVTDPSQVSHGTGFTSFGLLKL
modifications: CD40 ligand, soluble form
platelet aggregate formation compared to untreated blood [1]: no significant treatment-related effects
platelet coverage, fold-increase over untreated control ([1]; in some donors, sCD40L alone): about 2 fold
mean increase in platelet coverage compared to controls ([1]; sCD40L alone, up to 15 donors): not statistically significant
fibrin deposition on the endothelium compared to untreated blood [2]: no significant treatment-related effects

B2: hu5C8: humanized monoclonal IgG1 antibody against CD40L, alternatively named anti-sCD40L or anti-CD154 (antibody, chains of the INN, looked up, V domains shown)
VH: QVQLVQSGAEVVKPGASVKLSCKASGYIFTSYYMYWVKQAPGQGLEWIGEINPSNGDTNFNEKFKSKATLTVDKSASTAYMELSSLRSEDTAVYYCTRSDGRNDMDSWGQGTLVTVSS
VL: DIVLTQSPATLSVSPGERATISCRASQRVSSSTYSYMHWYQQKPGQPPKLLIKYASNLESGVPARFSGSGSGTDFTLTISSVEPEDFATYYCQHSWEIPPTFGGGTKLEIK
platelet aggregate formation compared to untreated blood [1]: no significant treatment-related effects
fibrin deposition on the endothelium compared to untreated blood [2]: no significant treatment-related effects
